Laboratory results taken from publication PMC8037569, “Neuroprotective Effect of Aurantio-Obtusin, a Putative Vasopressin V1A Receptor Antagonist, on Transient Forebrain Ischemia Mice Model” (International Journal of Molecular Sciences, 2021).

What was measured:
h5-HT1AR = biological target: T1, h5-HT1AR (Homo sapiens, UniProt P08908); assay: GPCR functional assay: intracellular Ca2+ mobilization in Ba/F3 cells; type: cell-based
T1 construct: host or cells: Ba/F3 (murine pro-B)
T1 sequence (P08908 1-422): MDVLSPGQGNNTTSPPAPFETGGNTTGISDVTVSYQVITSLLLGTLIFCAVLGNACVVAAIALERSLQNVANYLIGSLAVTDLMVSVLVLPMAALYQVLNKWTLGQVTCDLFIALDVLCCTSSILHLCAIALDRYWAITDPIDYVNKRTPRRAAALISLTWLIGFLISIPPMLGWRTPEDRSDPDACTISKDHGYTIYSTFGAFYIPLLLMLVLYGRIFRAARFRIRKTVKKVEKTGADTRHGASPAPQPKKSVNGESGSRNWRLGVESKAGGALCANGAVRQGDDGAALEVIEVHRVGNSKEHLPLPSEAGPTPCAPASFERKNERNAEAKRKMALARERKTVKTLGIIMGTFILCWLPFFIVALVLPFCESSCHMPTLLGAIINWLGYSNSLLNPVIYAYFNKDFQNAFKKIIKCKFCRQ

C57BL/6 mice = assay: Transient forebrain ischemia (BCCAO) mice model, overall effect and tolerability; type: in vivo
Method: […]. The animals were housed five per cage, allowed access to water and food ad libitum; the environment was maintained at a constant temperature (23 ± 1 °C) and humidity (60 ± 10%) under a 12-h light/dark cycle (the lights were on from 07:30 to 19:30 h). Forty mice were divided equally into four groups (sham + vehicle, n = 10; sham + drug, n = 10; bilateral common carotid artery occluded ischemia + vehicle, n = 10; bilateral common carotid artery occluded ischemia + drug, n = 10) for experiment. The treatment and maintenance of the animals were carried out in accordance with the Animal Care and Use Guidelines of Dong-A University, Korea. All in vivo experiments were performed according to the protocols approved by the Institutional Animal Care and Use Committee of Dong-A University (approved protocol numbers: DIACUC-approved-17-20) and were in accordance with the National Institutes of Health guidelines.
C57BL/6 mice were anesthetized with 2.0% isoflurane and 70% nitrous oxide in oxygen and subjected to transient forebrain ischemia. The transient forebrain ischemia was induced by bilateral common carotid artery occlusion (BCCAO) with aneurysm clips for 20 min, and the circulation was restored by removing the clips. […] The regional cerebral blood flow (rCBF) was monitored using laser Doppler flowmetry (Perimed, PF5010, JarFalla, Sweden). […]

`COc1c(O)cc2c(c1O)C(=O)c1c(cc(C)c(O)c1OC)C2=O` [Aurantio-obtusin, 1,3,7-trihydroxy-2,8-dimethoxy-6-methylanthracene-9,10-dione] was tested, and the “% Stimulation (agonist effect) of control agonist response, 5-HT1A (h)” value (h5-HT1AR; 100 µM test compound, control response to serotonin (2.5 μM)) was −6.10 ± 0.00%, the inhibition at 100 µM (h5-HT1AR; BaF3, read-out: % Inhibition (antagonist effect) of control agonist response, 5-HT1A (h) (converted)) was 10.1% and the “Toxicity of treatment alone (sham + drug)” value (C57BL/6 mice; 10 mg/kg, p.o., once daily, compared to sham group) was “no toxicity”. The “Effect in BCCAO model, pilot study” value (C57BL/6 mice; 1, 5 and 10 mg/kg tested, result for 10 mg/kg) was “effective”.
